Experimental data taken from PMC8516952, “Two triterpenoids from Rubus fraxinifolius leaves and their tyrosinase and elastase inhibitory activities” (Scientific Reports, 2021).
≈ marks a conversion by molar mass, not a printed value.

How the values were obtained:
[1] = test system: mushroom tyrosinase; test: Tyrosinase inhibition assay (DOPA-chrome formation method); format: biochemical, Agaricus bisporus
Procedure: Tyrosinase inhibition was determined using the DOPA-chrome formation method as described previously with slight modifications. […] They were preincubated for 10 min at room temperature. Reactions were initiated by adding 4 μL aliquots of 10 mM L-DOPA to each well and incubating at 37 °C for 20 min. Tyrosinase activity was then determined by measuring absorbance at 475 nm. […] Experiments were performed in triplicate.

[2] = biological target: porcine pancreatic elastase (Sus scrofa, UniProt P00772)
Chain of porcine pancreatic elastase (P00772 27-266): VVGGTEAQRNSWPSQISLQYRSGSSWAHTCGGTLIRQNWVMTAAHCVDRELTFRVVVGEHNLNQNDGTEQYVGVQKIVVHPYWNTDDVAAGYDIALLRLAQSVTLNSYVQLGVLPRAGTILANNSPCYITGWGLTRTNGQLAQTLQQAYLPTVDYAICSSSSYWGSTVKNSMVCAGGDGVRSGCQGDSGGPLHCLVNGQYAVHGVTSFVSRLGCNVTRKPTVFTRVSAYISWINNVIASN
Procedure: Elastase inhibition assay was performed as described previously with some modifications[32]. Briefly, in Nunc-96 well microtiter plates, 20-µL aliquots of 0.8-units/mL PPE in Trizma® base buffer (pH 8.0) were mixed with 20-µL samples, and the mixtures were then diluted to 180 µL in Trizma® base buffer. Test extracts were preincubated with enzyme for 15 min, and 20-μL aliquots of the substrate N-succinyl-Ala-Ala-Ala-p-nitroanilide (A3PVN; 2.9 mM) were added and incubated for another 15 min. Positive control and blank wells contained oleanolic acid and water, respectively. Experiments were conducted in triplicate, and inhibition rates were determined according to absorbance at 401 nm using a VersaMax microplate reader.
Percentage inhibition was calculated using the following equation: Elastase inhibition%=1-T-Tb/E-Eb×100, where E is the absorbance of the enzyme reaction, Eb is the absorbance of the enzyme blank, T is the absorbance of the test sample, and Tb is the absorbance of the test blank.

[3] = biological target: elastase; conditions: cited from earlier work

C[C@@H]1CC[C@]2(C(=O)O)CCC3(C)C(=CCC4C3(C)CCC3C(C)(C(=O)O)[C@H]5OCCO[C@@H]5C[C@@]34C)C2[C@]1(C)O (stereo partly shown) [Compound 1, 2,3-O-ethylene glycol, 19-hydroxyurs-12-en-23,28-dioic acid]
Activity as tyrosinase inhibitors (in words) [1]: moderate activities | IC50 tyrosinase inhibition [1]: 207.79 µg/mL (≈ 381 µM) | IC50 [2]: 224 µM

C[C@@H]1CC[C@]2(C(=O)O)CCC3(C)C(=CCC4C3(C)CCC3C(C)(C)[C@H]5OCCCO[C@@H]5C[C@@]34C)C2[C@]1(C)O (stereo partly shown) [Compound 2, 2,3-O-Propanediol, 19-hydroxyurs-12-en-28-oic acid]
Activity as tyrosinase inhibitors (in words) [1]: moderate activities | IC50 tyrosinase inhibition [1]: 221.51 µg/mL (≈ 419 µM) | IC50 [2]: 186 µM

C[C@H]1[C@H](C)CC[C@]2(C(=O)O)CC[C@]3(C)C(=CC[C@@H]4[C@@]5(C)CC[C@H](O)C(C)(C)[C@@H]5CC[C@]43C)[C@H]12 [ursolic acid]
IC50 elastase inhibition (previous studies) [3]: 31.0 µg/mL (≈ 67.9 µM)
